One substance from patent publication US12161694B2, “Methods and compositions for regulating innate lymphoid cell inflammatory responses” (The Broad Institute, Inc., priority 2017, dated 2024) can be followed below.

Where no end group is shown, it is not given here.

This experiment deals with lung-resident ILCs. Nature of the experiment: Flow cytometry of lung ILCs after in vivo treatment (Ki-67, ILC frequency, IL-17RB, surface and intracellular markers). More on the design: species or system mouse. The text has this:
Mice and in vivo ILC activation. C57Bl/6J mice were purchased from the Jackson Laboratory. Nmur1-LacZ reporter mice with a LacZ cassette knocked into the Nmur1 locus were rederived from Nmur1^tm1.1(KOMP)Vleg sperm obtained from the trans-NIH Knock-Out Mouse Project (KOMP) Repository. Mice were housed under specific-pathogen-free conditions. For experiments, mice were matched for sex and age, and most mice were 6-10 weeks old. Where indicated, mice were anesthetized with Isoflurane and treated intranasally with the indicated stimuli (500 ng IL-25, 500 ng IL-33, or 20 μg Neuromedin U) daily for three consecutive days. The total administered volume was 20 μl for all conditions. Mice were randomly assigned to treatment groups after matching for sex and age. […] Mice were treated intranasally with 10 μg HDM on day 0, 7, 8, and 9, prior to sacrifice on day 10. […]
Flow cytometry. […] Cells were stained on ice with antibodies for surface molecules and the live/dead marker 7AAD and analyzed on a LSRFortessa (BD Biosciences). […]
Lung analysis. […] BALF was centrifuged, and the supernatant was used for analyzing cytokine levels and the cell pellet was resuspended, counted, and used for flow cytometry. […] Where indicated, cells were diluted in 10% Trypan Blue and viable cells counted using a hemocytometer. […]

Take “Neuromedin U (FRVDEEFQSPFASQSRGYFLFRPRN-NH2; listed as Homo sapiens) [NMU, neuropeptide ligand of Nmur1 (US Biological)]”: the “Galectin-3 (Lgals3) and gp49 (Lilrb4a) expression on ILCs” value was “up-regulated”.
